Drawing on patent US9090593B2, “Bicyclic compounds as Pim inhibitors” (AMGEN INC., priority 2010, dated 2015), this text covers IC50 for 23 compounds.

Where two headings read alike, the source gives them in different places. Where only a bound is given, the exact number is not on record here.

Assay [1] deals with T1, full length recombinant Pim-1 protein (Homo sapiens, UniProt P11309).
T1 construct: by full length recombinant Pim-1, Pim-2, or Pim-3 protein; hexahistidine tag followed by a thrombin cleavage site (N); made in house; host or cells: Sf9 (baculovirus) or E. coli (pET28)
T1 sequence (P11309 whole entry): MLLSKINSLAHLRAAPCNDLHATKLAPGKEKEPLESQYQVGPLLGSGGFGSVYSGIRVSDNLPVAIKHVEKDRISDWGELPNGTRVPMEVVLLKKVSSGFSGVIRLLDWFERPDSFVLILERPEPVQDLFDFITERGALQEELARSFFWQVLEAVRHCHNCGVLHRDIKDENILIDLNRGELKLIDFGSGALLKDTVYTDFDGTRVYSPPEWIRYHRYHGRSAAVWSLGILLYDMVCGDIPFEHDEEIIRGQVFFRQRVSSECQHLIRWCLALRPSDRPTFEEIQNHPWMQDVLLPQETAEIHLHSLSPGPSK
Kind of assay: Pim-1 enzyme assay (HTRF, phosphorylation of biotinylated-BAD (S112) peptide). The conditions noted are these: enzyme assay, Pim-1; read-out: Pim_1_IC50. The format is biochemical. The essentials:
(§1)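 Each full-length human Pim enzyme phosphorylates a biotinylated BAD (S112) peptide, and the product is sensed by Eu anti-phospho-BAD antibody with streptavidin-APC after quenching with 3 mM EDTA. Conditions: 60 mM Hepes pH 7.0, 0.05% BSA, 2 mM DTT.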
In general terms: In TR-FRET formats the signal depends on donor and acceptor labels being close together.

Assay [2] addresses T2, full length recombinant Pim-2 protein (Homo sapiens, UniProt Q9P1W9).
T2 construct: by full length recombinant Pim-1, Pim-2, or Pim-3 protein; hexahistidine tag followed by a thrombin cleavage site (N); made in house; host or cells: Sf9 (baculovirus) or E. coli (pET28)
Briefly: Pim-2 enzyme assay (HTRF, phosphorylation of biotinylated-BAD (S112) peptide). Particulars: enzyme assay, Pim-2; read-out: Pim2_IC50. Type of assay: biochemical. The essentials:
as §1

For assay [3], the target named is T3, full length recombinant Pim-3 protein (Homo sapiens, UniProt Q86V86).
T3 construct: by full length recombinant Pim-1, Pim-2, or Pim-3 protein; purchased Millipore (UK)
Briefly: Pim-3 enzyme assay (HTRF, phosphorylation of biotinylated-BAD (S112) peptide). Type of assay: biochemical. The conditions noted are these: read-out: Pim3 IC50. An excerpt: Pim-3 was purchased from Millipore (UK).
The phosphorylation of biotinylated-BAD (S112) peptide by full length recombinant Pim-1, Pim-2, or Pim-3 protein was detected with streptavidin:Allophycocyanin (APC) conjugate and a europium (Eu) labeled antibody directed against phosphorylated-BAD (S112). […] The fluorescence is directly proportional to the amount of phosphorylated BAD peptide present in the reaction.
A reference compound was included on each assay plate in order to validate that plate; on one plate of every assay run, two additional reference compounds were included.
The final buffer conditions were as follows: 60 mM Hepes, pH 7.0, 0.05% BSA, 2 mM DTT. […] The reaction was stopped by the addition of 3 mM EDTA, and fluorescence was measured by an HTRF® Rubystar microplate reader. For each plate, percent of control (POC) values were calculated for each well. Values for the IC50 IP were estimated using a standard 4-parameter logistic model.

Assay [4] has as its target T4, Pim-1 stably transfected into the U2OS human osteogenic sarcoma line (Homo sapiens, UniProt P11309).
T4 construct: expressed in transfected cells; host or cells: U2OS human osteogenic sarcoma line
Kind of assay: Pim cell assay, phospho-BAD normalized against total BAD, U2OS stably transfected with Pim-1. Type of assay: cell-based. Particulars: read-out: Pim1_Cell_IC50. The essentials: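 Read-out is phospho-BAD relative to total BAD, by MSD electrochemiluminescence on lysates, expressed as % phosphoprotein = (2×phospho)/(phospho+total)×100. Engineered U2OS lines carrying stably transfected Pim-1 or Pim-2 received 10-point compound dilutions at 0.3% final DMSO after overnight culture at 37 °C; DMSO-only wells served as high control.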

The mark [5] stands for this setting: U2OS cells stably transfected with Pim-1, phospho-BAD, high dose […].

T4 sequence (P11309 whole entry): as the sequence (P11309 whole entry) above
T2 sequence (Q9P1W9 whole entry): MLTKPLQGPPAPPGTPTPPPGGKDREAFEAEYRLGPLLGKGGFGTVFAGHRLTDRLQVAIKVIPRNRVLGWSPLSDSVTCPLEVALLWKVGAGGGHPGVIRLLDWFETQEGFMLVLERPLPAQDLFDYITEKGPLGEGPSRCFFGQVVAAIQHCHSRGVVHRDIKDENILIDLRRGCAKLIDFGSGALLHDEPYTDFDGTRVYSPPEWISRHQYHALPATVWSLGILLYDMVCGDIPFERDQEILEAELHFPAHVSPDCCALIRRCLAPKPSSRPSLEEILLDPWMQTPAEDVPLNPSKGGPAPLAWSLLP

For `Fc1cccc(F)c1-c1ccc2[nH]nc(-c3cncc(O[C@@H]4CNCC[C@H]4F)n3)c2c1` (single isomer, unassigned) [Example 19, 5-(2,6-difluorophenyl)-3-(6-(trans-4-fluoropiperidin-3-yloxy)pyrazin-2-yl)-1H-indazole], the IC50 in assay [1] turned out to be 5 nM; in assay [2], 28 nM; in assay [3], 7 nM; in assay [4] (setting [5]) it was 254 nM.
With `COc1nc2ccccc2cc1-c1ccc2[nH]nc(-c3cncc(N4CCC(N)CC4)n3)c2c1` [Example 2, 1-(6-(5-(2-methoxyquinolin-3-yl)-1H-indazol-3-yl)pyrazin-2-yl)piperidin-4-amine], the IC50 was determined as 28 nM in assay [1], 769 nM in assay [2], 61 nM in assay [3] and 2630 nM in assay [4] (setting [5]).
For `NC1CCN(c2cncc(-c3c[nH]c4ccc(-c5c(F)cccc5F)nc34)c2)CC1` [Example 32, 1-(5-(5-(2,6-difluorophenyl)-1H-pyrrolo[3,2-b]pyridin-3-yl)pyridin-3-yl)piperidin-4-amine], the IC50 turned out to be 19 nM in assay [1], 586 nM in assay [2], 67 nM in assay [3] and 907 nM in assay [4].
For `NC1CCN(c2cncc(-c3n[nH]c4ccc(-c5cc6ccccc6nc5O)cc34)n2)CC1` [Example 54, 3-(3-(6-(4-amino-1-piperidinyl)-2-pyrazinyl)-1H-indazol-5-yl)-2-quinolinol], the IC50 in assay [1] worked out at 7 nM; in assay [2] it was 183 nM; in assay [3], 4 nM; in assay [4] (setting [5]) it was 3660 nM.
Take `NC1CCN(c2cncc(-c3n[nH]c4ccc(N5CCOCC5)cc34)n2)CC1` [Example 89, 1-(6-(5-(4-morpholinyl)-1H-indazol-3-yl)-2-pyrazinyl)-4-piperidinamine]: the IC50 in assay [1] stood at 28 nM; in assay [2], 303 nM; in assay [3] it was 49 nM; in assay [4] (setting [5]), 868 nM.
Turning to `Nc1cc(-c2ccc3[nH]nc(-c4cncc(N5CCC(N)CC5)n4)c3c2)ccc1N1CCOCC1` [Example 105, 1-(6-(5-(3-amino-4-(4-morpholinyl)phenyl)-1H-indazol-3-yl)-2-pyrazinyl)-4-piperidinamine], the IC50 in assay [1] was 2 nM; in assay [2], 43 nM; in assay [3], 5 nM; in assay [4] (setting [5]), 484 nM.
On to `CN(C)c1cccc(-c2ccc3[nH]nc(-c4cncc(N5CCC(N)CC5)n4)c3c2)c1` [Example 108, 1-(6-(5-(3-(dimethylamino)phenyl)-1H-indazol-3-yl)-2-pyrazinyl)-4-piperidinamine], for which the IC50 in assay [1] was 9 nM; in assay [2] it was 153 nM; in assay [3] it was 6 nM; in assay [4] (setting [5]), 866 nM.
With `NC1CCN(c2cncc(-c3n[nH]c4ccc(-c5ccnc6cc(F)ccc56)cc34)n2)CC1` [Example 110, 1-(6-(5-(7-fluoro-4-quinolinyl)-1H-indazol-3-yl)-2-pyrazinyl)-4-piperidinamine], the IC50 in assay [1] was found to be 8 nM; in assay [2] it was 151 nM; in assay [3] it was 23 nM; in assay [4] (setting [5]), 776 nM.
For the compound `Nc1nccc(N2CCc3ccc(-c4ccc5[nH]nc(-c6cncc(N7CCC(N)CC7)n6)c5c4)cc32)n1` [Example 113, 4-(6-(3-(6-(4-amino-1-piperidinyl)-2-pyrazinyl)-1H-indazol-5-yl)-2,3-dihydro-1H-indol-1-yl)-2-pyrimidinamine], the IC50 in assay [1] is 17 nM; in assay [2] it was 549 nM; in assay [3] it was 33 nM; in assay [4] (setting [5]), more than 15800 nM.
As to `Fc1ncc(Cl)cc1-c1ccc2[nH]nc(-c3cncc(O[C@@H]4CCCNC4)n3)c2c1` [Example 117, 5-(5-chloro-2-fluoro-3-pyridinyl)-3-(6-((3R)-3-piperidinyloxy)-2-pyrazinyl)-1H-indazole], the IC50 in assay [1] came to 18 nM; in assay [2], 66 nM; in assay [3], 5 nM; in assay [4] (setting [5]), 761 nM.
For `CC(C)Oc1cncc(-c2ccc3[nH]nc(-c4cncc(O[C@@H]5CCCNC5)n4)c3c2)c1` [Example 120, 5-(5-(1-methylethoxy)-3-pyridinyl)-3-(6-((3R)-3-piperidinyloxy)-2-pyrazinyl)-1H-indazole], the IC50 is 3 nM in assay [1], 98 nM in assay [2], 8 nM in assay [3] and 145 nM in assay [4] (setting [5]).
The matching figures for `Fc1cccnc1-c1ccc2[nH]nc(-c3cncc(O[C@@H]4CCCNC4)n3)c2c1` [Example 124, 5-(3-fluoro-2-pyridinyl)-3-(6-((3R)-3-piperidinyloxy)-2-pyrazinyl)-1H-indazole]: 11 nM, 58 nM, 11 nM and 402 nM.
Regarding `c1ccc(-c2ccc3[nH]nc(-c4cncc(O[C@@H]5CCCNC5)n4)c3c2)cc1` [Example 134, 5-phenyl-3-(6-((3R)-3-piperidinyloxy)-2-pyrazinyl)-1H-indazole], the IC50 in assay [1] was determined as 7 nM; in assay [2], 37 nM; in assay [3], 14 nM; in assay [4] (setting [5]), 316 nM.
Regarding `COc1cccc(-c2ccc3[nH]nc(-c4cncc(O[C@@H]5CCCNC5)n4)c3c2)n1` [Example 137, 5-(6-methoxy-2-pyridinyl)-3-(6((3R)-3-piperidinyloxy)-2-pyrazinyl)-1H-indazole], the IC50 was 8 nM in assay [1], 63 nM in assay [2], 6 nM in assay [3] and 585 nM in assay [4] (setting [5]).
As to `CC(C)Oc1cccc(-c2ccc3[nH]nc(-c4cncc(O[C@@H]5CCCNC5)n4)c3c2)c1` [Example 146, 5-(3-(1-methylethoxy)phenyl)-3-(6-((3R)-3-piperidinyloxy)-2-pyrazinyl)-1H-indazole], the IC50 in assay [1] is 7 nM; in assay [2] it was 84 nM; in assay [3], 31 nM; in assay [4] (setting [5]), 996 nM.
`CC(C)Oc1cncc(-c2ccc3[nH]cc(-c4cccc(OC(C)C)n4)c3c2)n1` [Example 226, 5-(6-(1-methylethoxy)-2-pyrazinyl)-3-(6-(1-methylethoxy)-2-pyridinyl)-1H-indole]: the figures for the IC50 in assay [1], in assay [2] and in assay [3] were 2200 nM, more than 3000 nM and 616 nM, respectively.
For the compound `CC(C)Oc1cncc(-c2ccc3[nH]cc(-c4cccc(N5CCCC5=O)n4)c3c2)n1` [Example 229, 1-(6-(5-(6-(1-methylethoxy)-2-pyrazinyl)-1H-indol-3-yl)-2-pyridinyl)-2-pyrrolidinone], the IC50 in assay [1] was 251 nM; in assay [2] it was more than 3000 nM; in assay [3] it was 147 nM.
Take `Nc1ccc2[nH]cc(-c3cncc(N4CCC(N)CC4)n3)c2c1` [Example 233, 3-(6-(4-aminopiperidin-1-yl)pyrazin-2-yl)-1H-indol-5-amine]: the IC50 in assay [1] was 845 nM; in assay [2] it was more than 3000 nM; in assay [3] it was 1760 nM.
In the case of `CCC(=O)Nc1ccc2[nH]cc(-c3cncc(N4CCC(N)CC4)n3)c2c1` [Example 234, N-(3-(6-(4-aminopiperidin-1-yl)pyrazin-2-yl)-1H-indol-5-yl)propionamide], the IC50 stood at 161 nM in assay [1], 2570 nM in assay [2] and 348 nM in assay [3].
On the same counts, the results for `NC1CCN(c2cncc(-c3c[nH]c4ccc(NC(=O)c5ccccc5)cc34)n2)CC1` [Example 235, N-(3-(6-(4-aminopiperidin-1-yl)pyrazin-2-yl)-1H-indol-5-yl)benzamide] are 121 nM, 1870 nM and 151 nM.
For `NC1CCN(c2cncc(-c3c[nH]c4ccc(C(=O)O)cc34)n2)CC1` [Example 237, 3-(6-(4-aminopiperidin-1-yl)pyrazin-2-yl)-1H-indole-5-carboxylic acid], the values for the IC50 in assay [1], in assay [2] and in assay [3] were 195 nM, 325 nM and 122 nM, respectively.
As for `NC(=O)c1ccc2[nH]cc(-c3cncc(N4CCC(N)CC4)n3)c2c1` [Example 238, 3-(6-(4-aminopiperidin-1-yl)pyrazin-2-yl)-1H-indole-5-carboxamide], the results for the IC50 in assay [1], in assay [2] and in assay [3] were 107 nM, 755 nM and 311 nM, respectively.
In the case of `CC(C)NC(=O)c1ccc2[nH]cc(-c3cncc(N4CCC(N)CC4)n3)c2c1` [Example 239, 3-(6-(4-aminopiperidin-1-yl)pyrazin-2-yl)-N-isopropyl-1H-indole-5-carboxamide], the IC50 in assay [1] was 166 nM; in assay [2], more than 3000 nM; in assay [3] it was 347 nM.
